Columns and labels:
Experiment in all cases: relative viability (nuclei count vs DMSO), 5 days (fraction); higher = more cells survive
KIN001-266 + Pictilisib = compound: CCN1CCC(CC1)N2C=C(N=N2)CNC3=CC4=C(C(=CN=C4C(=C3)Cl)C#N)NC5=CC(=C(C=C5)F)Cl [KIN001-266] + CS(=O)(=O)N1CCN(Cc2cc3nc(-c4cccc5[nH]ncc45)nc(N4CCOCC4)c3s2)CC1 [Pictilisib] (partner 1 µM)
How it was run: (§1)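 Five library-drug doses in √10 steps were combined with a fixed anchor-drug dose, or a single drug was given alone, by pin tool to lung cancer cell lines in 1536-well plates the day after seeding. Nuclei were stained and counted after 5 days. Relative viability is the nuclei count in treated wells over that in vehicle wells, taken as the median of duplicate plates.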

KIN001-266 + Crizotinib = compound: CCN1CCC(CC1)N2C=C(N=N2)CNC3=CC4=C(C(=CN=C4C(=C3)Cl)C#N)NC5=CC(=C(C=C5)F)Cl [KIN001-266] + C[C@@H](Oc1cc(-c2cnn(C3CCNCC3)c2)cnc1N)c1c(Cl)ccc(F)c1Cl [Crizotinib] (partner 1 µM)
How it was run: as §1

KIN001-266 + Alpelisib = compound: CCN1CCC(CC1)N2C=C(N=N2)CNC3=CC4=C(C(=CN=C4C(=C3)Cl)C#N)NC5=CC(=C(C=C5)F)Cl [KIN001-266] + Cc1nc(NC(=O)N2CCC[C@H]2C(N)=O)sc1-c1ccnc(C(C)(C)C(F)(F)F)c1 [Alpelisib] (partner 2 µM)
How it was run: as §1

KIN001-266 + Lapatinib = compound: CCN1CCC(CC1)N2C=C(N=N2)CNC3=CC4=C(C(=CN=C4C(=C3)Cl)C#N)NC5=CC(=C(C=C5)F)Cl [KIN001-266] + CS(=O)(=O)CCNCc1ccc(-c2ccc3ncnc(Nc4ccc(OCc5cccc(F)c5)c(Cl)c4)c3c2)o1 [Lapatinib] (partner 2 µM)
How it was run: as §1

KIN001-266 + Bortezomib = compound: CCN1CCC(CC1)N2C=C(N=N2)CNC3=CC4=C(C(=CN=C4C(=C3)Cl)C#N)NC5=CC(=C(C=C5)F)Cl [KIN001-266] + CC(C)C[C@H](NC(=O)[C@H](Cc1ccccc1)NC(=O)c1cnccn1)B(O)O [Bortezomib] (partner 0.002 µM)
How it was run: as §1

KIN001-266 + Olaparib = compound: CCN1CCC(CC1)N2C=C(N=N2)CNC3=CC4=C(C(=CN=C4C(=C3)Cl)C#N)NC5=CC(=C(C=C5)F)Cl [KIN001-266] + O=C(c1cc(Cc2n[nH]c(=O)c3ccccc23)ccc1F)N1CCN(C(=O)C2CC2)CC1 [Olaparib] (partner 8 µM)
How it was run: as §1

KIN001-266 + Navitoclax = compound: CCN1CCC(CC1)N2C=C(N=N2)CNC3=CC4=C(C(=CN=C4C(=C3)Cl)C#N)NC5=CC(=C(C=C5)F)Cl [KIN001-266] + CC1(C)CCC(c2ccc(Cl)cc2)=C(CN2CCN(c3ccc(C(=O)NS(=O)(=O)c4ccc(N[C@H](CCN5CCOCC5)CSc5ccccc5)c(S(=O)(=O)C(F)(F)F)c4)cc3)CC2)C1 [Navitoclax] (partner 0.5 µM)
How it was run: as §1

KIN001-266 + Foretinib = compound: CCN1CCC(CC1)N2C=C(N=N2)CNC3=CC4=C(C(=CN=C4C(=C3)Cl)C#N)NC5=CC(=C(C=C5)F)Cl [KIN001-266] + COc1cc2c(Oc3ccc(NC(=O)C4(C(=O)Nc5ccc(F)cc5)CC4)cc3F)ccnc2cc1OCCCN1CCOCC1 [Foretinib] (partner 0.25 µM)
How it was run: as §1

KIN001-266 + Linsitinib = compound: CCN1CCC(CC1)N2C=C(N=N2)CNC3=CC4=C(C(=CN=C4C(=C3)Cl)C#N)NC5=CC(=C(C=C5)F)Cl [KIN001-266] + C[C@]1(O)C[C@@H](c2nc(-c3ccc4ccc(-c5ccccc5)nc4c3)c3c(N)nccn32)C1 [Linsitinib] (partner 1 µM)
How it was run: as §1

KIN001-266 = compound: CCN1CCC(CC1)N2C=C(N=N2)CNC3=CC4=C(C(=CN=C4C(=C3)Cl)C#N)NC5=CC(=C(C=C5)F)Cl [KIN001-266]
How it was run: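 Vehicle-anchored 1536-well plates of lung cancer cell lines, held overnight at 37 °C, were pinned with five library-drug doses (not always all listed) spaced by √10. No medium change followed over the next 5 days, after which the cells were fixed, permeabilised and Hoechst-stained together and imaged at 4×. Nuclei were counted with MetaXpress, and viability is treated-well nuclei over vehicle-well nuclei, taken as a median across plates. Plates passed with control CV below 25% and at least one doubling.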

KIN001-266 + Luminespib = compound: CCN1CCC(CC1)N2C=C(N=N2)CNC3=CC4=C(C(=CN=C4C(=C3)Cl)C#N)NC5=CC(=C(C=C5)F)Cl [KIN001-266] + CCNC(=O)c1noc(-c2cc(C(C)C)c(O)cc2O)c1-c1ccc(CN2CCOCC2)cc1 [Luminespib] (partner 0.01 µM)
How it was run: as §1

KIN001-266 + Dasatinib = compound: CCN1CCC(CC1)N2C=C(N=N2)CNC3=CC4=C(C(=CN=C4C(=C3)Cl)C#N)NC5=CC(=C(C=C5)F)Cl [KIN001-266] + Cc1nc(Nc2ncc(C(=O)Nc3c(C)cccc3Cl)s2)cc(N2CCN(CCO)CC2)n1 [Dasatinib] (partner 0.075 µM)
How it was run: as §1

KIN001-266 + Phenformin = compound: CCN1CCC(CC1)N2C=C(N=N2)CNC3=CC4=C(C(=CN=C4C(=C3)Cl)C#N)NC5=CC(=C(C=C5)F)Cl [KIN001-266] + N=C(N)NC(=N)NCCc1ccccc1 [Phenformin] (partner 250 µM)
How it was run: as §1

KIN001-266 + OSI-027 = compound: CCN1CCC(CC1)N2C=C(N=N2)CNC3=CC4=C(C(=CN=C4C(=C3)Cl)C#N)NC5=CC(=C(C=C5)F)Cl [KIN001-266] + COc1cccc2cc(-c3nc([C@H]4CC[C@H](C(=O)O)CC4)n4ncnc(N)c34)[nH]c12 [OSI-027] (partner 0.5 µM)
How it was run: as §1

KIN001-266 + Tozasertib = compound: CCN1CCC(CC1)N2C=C(N=N2)CNC3=CC4=C(C(=CN=C4C(=C3)Cl)C#N)NC5=CC(=C(C=C5)F)Cl [KIN001-266] + Cc1cc(Nc2cc(N3CCN(C)CC3)nc(Sc3ccc(NC(=O)C4CC4)cc3)n2)n[nH]1 [Tozasertib] (partner 0.1 µM)
How it was run: as §1

NCI-H1299 gave a relative viability (KIN001-266 + Pictilisib; first compound 0.08 µM) of 0.98, a relative viability (KIN001-266 + Pictilisib; first compound 0.253 µM) of 0.754 and a relative viability (KIN001-266 + Pictilisib; first compound 0.8 µM) of 0.893. The relative viability (KIN001-266 + Pictilisib; first compound 2.53 µM) was 0.75, the relative viability (KIN001-266 + Pictilisib; first compound 8 µM) was 0.424 and the relative viability (KIN001-266 + Crizotinib; first compound 0.08 µM) was 0.946. It also gave a relative viability (KIN001-266 + Crizotinib; first compound 0.253 µM) of 0.921, a relative viability (KIN001-266 + Crizotinib; first compound 0.8 µM) of 0.941 and a relative viability (KIN001-266 + Crizotinib; first compound 2.53 µM) of 0.87. The relative viability (KIN001-266 + Crizotinib; first compound 8 µM) was 0.817, the relative viability (KIN001-266 + Alpelisib; first compound 0.08 µM) was 1.04 and the relative viability (KIN001-266 + Alpelisib; first compound 0.253 µM) was 1.05. The relative viability (KIN001-266 + Alpelisib; first compound 0.8 µM) was 0.548, the relative viability (KIN001-266 + Alpelisib; first compound 2.53 µM) was 0.975 and the relative viability (KIN001-266 + Alpelisib; first compound 8 µM) was 1.01. It also gave a relative viability (KIN001-266 + Lapatinib; first compound 0.08 µM) of 0.918, a relative viability (KIN001-266 + Lapatinib; first compound 0.253 µM) of 0.959 and a relative viability (KIN001-266 + Lapatinib; first compound 0.8 µM) of 0.902. It also gave a relative viability (KIN001-266 + Lapatinib; first compound 2.53 µM) of 0.854, a relative viability (KIN001-266 + Lapatinib; first compound 8 µM) of 0.855 and a relative viability (KIN001-266 + Bortezomib; first compound 0.08 µM) of 1.02. For the same cell line, the relative viability (KIN001-266 + Bortezomib; first compound 0.253 µM) was 1.01, the relative viability (KIN001-266 + Bortezomib; first compound 0.8 µM) was 0.984 and the relative viability (KIN001-266 + Bortezomib; first compound 2.53 µM) was 0.962. For the same cell line, the relative viability (KIN001-266 + Bortezomib; first compound 8 µM) was 0.882, the relative viability (KIN001-266 + Olaparib; first compound 0.08 µM) was 0.941 and the relative viability (KIN001-266 + Olaparib; first compound 0.253 µM) was 1.03. It also gave a relative viability (KIN001-266 + Olaparib; first compound 0.8 µM) of 0.933, a relative viability (KIN001-266 + Olaparib; first compound 2.53 µM) of 0.859 and a relative viability (KIN001-266 + Olaparib; first compound 8 µM) of 0.775. For the same cell line, the relative viability (KIN001-266 + Navitoclax; first compound 0.08 µM) was 1.04, the relative viability (KIN001-266 + Navitoclax; first compound 0.253 µM) was 1.04 and the relative viability (KIN001-266 + Navitoclax; first compound 0.8 µM) was 0.995. For the same cell line, the relative viability (KIN001-266 + Navitoclax; first compound 2.53 µM) was 1.01, the relative viability (KIN001-266 + Navitoclax; first compound 8 µM) was 0.897 and the relative viability (KIN001-266 + Foretinib; first compound 0.08 µM) was 1.06. The relative viability (KIN001-266 + Foretinib; first compound 0.253 µM) was 1.1, the relative viability (KIN001-266 + Foretinib; first compound 0.8 µM) was 1.05 and the relative viability (KIN001-266 + Foretinib; first compound 2.53 µM) was 0.994. It also gave a relative viability (KIN001-266 + Foretinib; first compound 8 µM) of 0.964, a relative viability (KIN001-266 + Linsitinib; first compound 0.08 µM) of 0.955 and a relative viability (KIN001-266 + Linsitinib; first compound 0.253 µM) of 0.984. It also gave a relative viability (KIN001-266 + Linsitinib; first compound 0.8 µM) of 1, a relative viability (KIN001-266 + Linsitinib; first compound 2.53 µM) of 0.946 and a relative viability (KIN001-266 + Linsitinib; first compound 8 µM) of 0.899. For the same cell line, the relative viability (KIN001-266; 0.08 µM) was 0.987, the relative viability (KIN001-266; 0.253 µM) was 0.996 and the relative viability (KIN001-266; 0.8 µM) was 1. For the same cell line, the relative viability (KIN001-266; 2.53 µM) was 0.928 and the relative viability (KIN001-266; 8 µM) was 0.869.
In the case of NCI-H1623, the relative viability (KIN001-266 + Luminespib; first compound 0.08 µM) is reported as 0.423, the relative viability (KIN001-266 + Luminespib; first compound 0.253 µM) is reported as 0.624 and the relative viability (KIN001-266 + Luminespib; first compound 0.8 µM) is reported as 0.57. For the same cell line, the relative viability (KIN001-266 + Luminespib; first compound 2.53 µM) was 0.475, the relative viability (KIN001-266 + Luminespib; first compound 8 µM) was 0.536 and the relative viability (KIN001-266 + Dasatinib; first compound 0.08 µM) was 0.579. It also gave a relative viability (KIN001-266 + Dasatinib; first compound 0.253 µM) of 0.514, a relative viability (KIN001-266 + Dasatinib; first compound 0.8 µM) of 0.447 and a relative viability (KIN001-266 + Dasatinib; first compound 2.53 µM) of 0.547. For the same cell line, the relative viability (KIN001-266 + Dasatinib; first compound 8 µM) was 0.475, the relative viability (KIN001-266 + Phenformin; first compound 0.08 µM) was 0.652 and the relative viability (KIN001-266 + Phenformin; first compound 0.253 µM) was 0.603. The relative viability (KIN001-266 + Phenformin; first compound 0.8 µM) was 0.577, the relative viability (KIN001-266 + Phenformin; first compound 2.53 µM) was 0.611 and the relative viability (KIN001-266 + Phenformin; first compound 8 µM) was 0.526. The relative viability (KIN001-266 + OSI-027; first compound 0.08 µM) was 0.457, the relative viability (KIN001-266 + OSI-027; first compound 0.253 µM) was 0.437 and the relative viability (KIN001-266 + OSI-027; first compound 0.8 µM) was 0.385. It also gave a relative viability (KIN001-266 + OSI-027; first compound 2.53 µM) of 0.453, a relative viability (KIN001-266 + OSI-027; first compound 8 µM) of 0.433 and a relative viability (KIN001-266 + Foretinib; first compound 0.08 µM) of 1.05. For the same cell line, the relative viability (KIN001-266 + Foretinib; first compound 0.253 µM) was 0.865, the relative viability (KIN001-266 + Foretinib; first compound 0.8 µM) was 0.871 and the relative viability (KIN001-266 + Foretinib; first compound 2.53 µM) was 0.894. For the same cell line, the relative viability (KIN001-266 + Foretinib; first compound 8 µM) was 0.875, the relative viability (KIN001-266 + Tozasertib; first compound 0.08 µM) was 0.468 and the relative viability (KIN001-266 + Tozasertib; first compound 0.253 µM) was 0.421. For the same cell line, the relative viability (KIN001-266 + Tozasertib; first compound 0.8 µM) was 0.461, the relative viability (KIN001-266 + Tozasertib; first compound 2.53 µM) was 0.432 and the relative viability (KIN001-266 + Tozasertib; first compound 8 µM) was 0.422. The relative viability (KIN001-266; 0.08 µM) was 0.963, the relative viability (KIN001-266; 0.253 µM) was 0.96 and the relative viability (KIN001-266; 0.8 µM) was 0.955. The relative viability (KIN001-266; 2.53 µM) was 1.07 and the relative viability (KIN001-266; 8 µM) was 1.01.
